Tested on: male Swiss-Webster mice
Experiment: intraperitoneal toxicity observation in mice
Type: in vivo
Details: 50 mg./kg. intraperitoneal in 10% w/v dimethylsulphoxide in saline; observed four hours and checked 24 hours after dosing

SMILES	toxic symptoms
CNC(=NS(C)(=O)=O)NCCCCc1csc(NC(N)=NCC(F)(F)F)n1 [Example 11, 2-[2-(2,2,2-trifluoroethyl)guanidino]-4-[4-(2-methylsulphonyl-3-methylguanidino)butyl]thiazole]	No toxic symptoms
CNC(=C[N+](=O)[O-])NCCCCc1csc(N=C(N)NCC(F)(F)F)n1 [Example 9]	No toxic symptoms

Reference: US4362728A, “Haloguanidine compounds, pharmaceutical compositions and methods of use” (ICI Americas Inc., priority 1979, dated 1982)
